“Also recorded” adds a separate entry of the source. Bridges are numbered along the chain shown (N, C = ends). [ ]: non-standard residue; d: D form. Ahx = NCCCCCC(=O)O

From patent US20150010932A1, “METHODS FOR ASSAYING PROTEIN-PROTEIN INTERACTIONS” (Salk Institute for Biological Studies, priority 2013, published 2015) come the findings set out here.

For data set [1], the system named is Normal human fibroblasts (WS1 cells). Kind of data set: Lactate dehydrogenase (LDH) leakage assay, WS1 fibroblasts. It counts as cell-based. The following applies: 25 μM and 10 μM, 6 hours, no serum.
Description: (§1) Accumulation of cytoplasmic lactate dehydrogenase (LDH) in the growth medium was used as a metric of cell membrane damage. LDH was detected by the CytoTox 96 Non-Radioactive Cytotoxicity Assay Kit (Promega). The 0.8% Triton X-100 treatment (Lysed) represents the maximum LDH leakage in this experiment and its reading was set to 100%. DMSO treatment served as the vehicle control and provided an indication of the presence of trace amounts of LDH in the serum and spontaneous LDH leakage from cells. The value obtained in the presence of DMSO was set to 0%. Data are shown as mean±SD (n=3). (B) Normal human fibroblasts (WS 1 cells) were treated exactly as in (A). Data are shown as mean±SD (n=3).S
(§2) Saos-2 and WS 1 cells were seeded into 96-well plates (20,000 cells per well) and incubated at 37° C. […] LDH leakage into media was detected by the CytoTox 96 Non-Radioactive Cytotoxicity Assay Kit (Promega G1780) per manufacture's protocol. Assay background was evaluated by using the LDH reading from wells containing only media and PPI antagonists with or without 10% FBS and was subtracted from the values obtained in the presence of the PPI antagonists. Cells lysed by 0.8% Triton X-100 (provided by the Kit), a concentration sufficient to ensure lyse all cells but low enough not to interfere with the LDH assay, represents the maximum LDH leakage in this experiment and its reading is set to 100%. […]
In the next data set the test system is Saos-2 cells. Kind of data set: Lactate dehydrogenase (LDH) leakage assay, Saos-2 cells. The following applies: 25 μM and 10 μM, 6 hours, no serum.
Data set [2] has as its target T1, p53-Mdm2 complexes (Homo sapiens, UniProt Q00987).
T1 construct: cLuc-linker-FLAG-Mdm2-108 (generated); cLuc (C-terminal split firefly luciferase fragment, amino acids 398-550); expressed in transfected cells; host or cells: Saos-2 134-385 (single-copy RMCE integration, doxycycline-induced); the lysate assay text says Saos-2 or U2OS reporter cells
As to the kind of experiment: BiLC assay using cell lysates, p53-Mdm2. It counts as biochemical. The following applies: no FBS.
Protocol: FIGS. 5A and 5B show a set of graphs illustrating that the BiLC lysate assay can be used to determine if serum prevents SAH peptides from disrupting p53-Mdm2 or p53-Mdm4 complexes. (A) Cell lysates obtained from nLuc-p53 and cLuc-Mdm2 or nLuc-p53 and cLuc-Mdm4 ReBiL expressing reporter cells were incubated with the indicated PPI antagonists in the absence of FBS in a 384-well plate at room temperature for 10 minutes. Steady-Glo luciferase reagent was added, and luminescence was measured in a Tecan M200 luminometer at 26° C. Data are shown as mean±standard deviation (n=3) and normalized to the luminescent reading of DMSO (set to 100%). (B) The BiLC lysate assays were identical to (A) except for the inclusion of 10% FBS. Data are shown as mean±standard deviation (n=3) and normalized to the luminescent reading of DMSO (set to 100%).
(§3) (A) Small molecule PPI antagonists were tested in p53-Mdm2 and p53-Mdm4 BiLC lysate assays without FBS. […] Data are shown as mean±standard deviation (n=3) and normalized to the luminescent reading of DMSO (set to 100%).
The 4× concentrated drugs diluted in DMEM/F12 media were pipetted into 384 well plates, 10 μl per well. […] 20 μl of luciferin reagents were added (Promega Bright-Glo E2620 or Steady-Glo E2520) into each well and luminescence was measured in a Tecan M200: integration time 0.5 seconds, 3˜5 minutes per cycle for total 30 minutes at 26° C.

For data set [3], the target named is T2, p53-Mdm4 complexes (Homo sapiens, UniProt O15151).
T2 sequence (O15151 2-111): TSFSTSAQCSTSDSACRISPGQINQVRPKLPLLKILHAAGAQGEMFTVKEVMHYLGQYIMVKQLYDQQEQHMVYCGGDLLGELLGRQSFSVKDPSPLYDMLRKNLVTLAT
Kind of data set: Real-time BiLC (ReBiL) assay in living cells, p53-Mdm4 reporter (Saos-2 134-354).

Data set [4] deals with T2, p53-Mdm4 complexes. Kind of data set: BiLC assay using cell lysates, p53-Mdm4. It counts as biochemical. Set-up: 2-111) was cloned into pLi317; cLuc (C-terminal split firefly luciferase fragment, amino acids 398-550; expressed in transfected cells; host or cells: Saos-2 134-354 (single-copy RMCE integration, doxycycline-induced); the lysate assay text says Saos-2 or U2OS reporter cells. The following applies: no FBS.
Protocol: (A) Cell lysates obtained from nLuc-p53 and cLuc-Mdm2 or nLuc-p53 and cLuc-Mdm4 ReBiL expressing reporter cells were incubated with the indicated PPI antagonists in the absence of FBS in a 384-well plate at room temperature for 10 minutes. Steady-Glo luciferase reagent was added, and luminescence was measured in a Tecan M200 luminometer at 26° C. Data are shown as mean±standard deviation (n=3) and normalized to the luminescent reading of DMSO (set to 100%). (B) The BiLC lysate assays were identical to (A) except for the inclusion of 10% FBS. Data are shown as mean±standard deviation (n=3) and normalized to the luminescent reading of DMSO (set to 100%).
as §3
The 4× concentrated drugs diluted in DMEM/F12 media were pipetted into 384 well plates, 10 μl per well. Cells were washed with PBS-twice and lysed with PLB buffer (100 mM Tris-HCl pH 7.5; 0.5 mM EDTA; 150 mM NaCl; 0.1% Triton X-100, 1 mM sodium orthovanadate, 50 mM sodium fluoride, and Roche Complete Mini Protease Inhibitor Cocktail). […] The clear lysates were collected, diluted with DMEM (˜300 μl DMEM added into 100 μl lysates); 10 μl of diluted lysates were pipetted into each of the 384-wells, and the plates were incubated at room temperature for 10 minutes. 20 μl of luciferin reagents were added (Promega Bright-Glo E2620 or Steady-Glo E2520) into each well and luminescence was measured in a Tecan M200: integration time 0.5 seconds, 3˜5 minutes per cycle for total 30 minutes at 26° C.

Data set [5] concerns the target T1, p53-Mdm2 complexes. Kind of data set: Real-time BiLC (ReBiL) assay in living cells, p53-Mdm2 reporter (Saos-2 134-385). In kind it is cell-based.
Protocol: Data shown are mean±standard deviation (n=8). […] Actin was used as a loading control. […] Luminescent signals were measured every 10 minutes for 10 hours in a Tecan-M200 at 37° C. Data shown are mean±standard deviation (n=4). […] The nLuc-p53 and cLuc-Mdm2 fusion proteins were detected by anti-FLAG and anti-HA antibodies, respectively, and Actin was used as a loading control.
At Time=0, the cells were washed with Dulbecco's modified Eagle medium (DMEM) once, and treated with new media containing different PPI antagonists and with or without 10% fetal bovine serum (FBS).
Two strategies were used to avert cytotoxicity or cell cycle arrest that could be generated by wild type p53 activation. First, p53 null Saos-2 cells were used as the host cell line for ReBiL reporters.
The Saos-2 ReBiL reporter cells were washed, trypsinized and cell numbers were determined. […] Supernatants were discarded, ReBiL reporter cells were resuspended with DMEM/F12 (phenol-red free) and 20 μl cells were pipetted into each well. […]
(a) The following protocol was used to evaluate small molecule PPI antagonists. […] The next day, the cells were washed, trypsinized, and cell numbers were determined. […] The plate was sealed with a MicroAmp Optical Adhesive Film, and luminescence was measured in a Tecan M200: integration time 2 seconds, 5˜10 minutes per cycle for total 6 hours at 37° C.
Data set [6] has as its target T3, Mdm2-Mdm4 N-terminal BiLC pair (Homo sapiens, UniProt O15151+Q00987).
T3 construct: linker-FLAG-Mdm2-108 (generated by; 2-111) was cloned into pLi223; cLuc (split firefly luciferase amino acids 398-550); nLuc (split firefly luciferase amino acids 1-416); expressed in transfected cells; host or cells: U2OS 134-544 (RMCE integration, doxycycline-induced)
As to the kind of experiment: Real-time BiLC assay in U2OS Mdm4-111/Mdm2-108 ReBiL reporter cells (U2OS 134-544). In kind it is cell-based. The following applies: U2OS 134-544 cells, compound with doxycycline at Time=0, 24 hours.
Description: Data are shown as mean±standard deviation (n=6). […] Data are shown as mean±standard deviation (n=4).

[7] abbreviates: living Saos-2 cells, doxycycline withdrawal, small molecule protocol.

T1 sequence (Q00987 2-108, one chain of several): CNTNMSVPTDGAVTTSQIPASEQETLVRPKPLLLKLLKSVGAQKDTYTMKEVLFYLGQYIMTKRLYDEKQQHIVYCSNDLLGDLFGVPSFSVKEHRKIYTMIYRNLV
T3 sequence (Q00987 2-108, one chain of several): as above
Description for Saos-2 cells: as §1, §2

In the case of `COc1ccc(C2=N[C@@H](c3ccc(Cl)cc3)[C@@H](c3ccc(Cl)cc3)N2C(=O)N2CCNC(=O)C2)c(OC(C)C)c1` [Nutlin-3a], the “LDH leakage (cell membrane damage), absence of serum” value (in data set [1]; in the data set on Saos-2 cells) was “failed to induce membrane leakage” throughout.

For the molecule `CCOc1cc(/C=C2/C(=O)N(c3ccccc3)N=C2C)cc(Cl)c1OCC(=O)OC` [SJ-172550], on p53-Mdm2 complexes [2], the “p53-Mdm2 disruption in lysate BiLC assay, without FBS” value is “no activity”. For the same molecule, the “p53-Mdm4 BiLC signal (newly synthesized complexes)” value at p53-Mdm4 complexes [3] (living Saos-2 134-354 cells, compound added with doxycycline at Time=0, 10% FBS) is reported as “No decrease in p53-Mdm4 luciferase signal was detected; also recorded: virtually no activity”. The “p53-Mdm4 disruption in lysate BiLC assay, without FBS” value at p53-Mdm4 complexes [4] is reported as “no activity; also recorded: poor p53/Mdm4 antagonist”.

Turning to MI-219, on p53-Mdm2 complexes [5] (ReBiL strategy), the “Ability to interfere selectively with p53-Mdm2 interaction” value is on record as “interfere selectively with p53-Mdm2 interaction was confirmed”.

In the case of RO-5963, the “Disruption of pre-formed p53-Mdm2 BiLC complexes” value at p53-Mdm2 complexes [5] (setting [7]) is reported as “did not efficiently disrupt”. Further, in data set [6], the “Mdm2-Mdm4 N-terminal domain association (luminescent signal)” value is “increased luminescent signals were detected”. Also, the “p53-Mdm2 disruption in lysate BiLC assay, without FBS” value on p53-Mdm2 complexes [2] is “no activity”. In addition, on p53-Mdm4 complexes [3] (setting [7]), the “Disruption of pre-formed p53-Mdm4 BiLC complexes” value is “did not efficiently disrupt”. In addition, the “p53-Mdm4 disruption in lysate BiLC assay, without FBS” value at p53-Mdm4 complexes [4] is given as “no activity”.

Regarding “cyclo(ACICRGNGYCG[Ahx]TSFAEYWNLLSGVCPKILQRCRRDSDCPG) (disulfide 2-26, 4-33, 10-39) [McoTi-1-PMI]”, the “LDH leakage (cell membrane damage), absence of serum” value in the data set on Saos-2 cells is “all except one (McoTi-1-PMI), damage cell membranes”.
